From patent US5521155A, “Amides of teicoplanin compounds” (Gruppo Lepetit S.p.A, priority 1985, dated 1996)
Converted amounts (≈) assume the structure as drawn.

Tests used:
[1] = Isoelectric point (pI) by isoelectrofocusing with bioautography detection; type: physicochemical; conditions: IEF technique, polyacrylamide gel
From the text: The isoelectrofocusing (IEF) technique coupled with bioautography detection has been used for the determination of the pI of representative compounds of the invention using the following materials: AMPHOLINE carrier ampholytes (40% w/v) were purchased from LKB Produketer AB, Bromma, Sweden. Acrylamide, N,N'-methylenbisacrylamide (BIS), N,N,N',N'-tetramethylethylenediamine (TEMED) and ammonium persulfate were from Bio Rad Laboratorie, Richmond, Calif., USA. Glycerol and Antibiotic agar N. 1 (Grove and Randall medium N. 1) were from E. Merck Darmstadt FRG. GEL FIX polyester sheets were purchased from Serva Feinbiochemica Heidelberg. Phenolindo (2,6-dichlorophenol) came from BDH Chemicals Ltd. Poole, England.
IEF was made on gel slab using a LKB MULITPHOR 2117 cell and a Bio-Rad Power Supply Model 1420A. Slabs of 24.5×11.5 cm and 1 mm thickness were prepared on a sheet of GEL FIX. Polyacrylamide gels with a concentration of 8% T and with a cross-linkage of 4% C (30% T stock solution was prepared by dissolving 28.8 g of acrylamide and 1.2 g of bis-acrylamide in 100 ml distilled water), glycerol, 3.5% v/v, 2% AMPHOLINE, 0.05% ammonium persulphate as catalyst and 0.05% TEMED as accelerator. The carrier ampholite composition for 35 ml gelling solution was as follows:
The electrode solutions, as recommended by LKB for the respective pH range, were:
The gel was cooled to 4° C. with the aid of a LKB 2209 refrigerated constant temperature circulator. After prefocusing for 30 min. at 5 W, the samples (20 μl containing 0.2 to 2.5 μg of antibiotic) were loaded into the slot at the cathodic side. Electrofocusing was performed using 10 W constant power and was completed after 3-31/2 hours with a final potential of 1400 V.
The pH values were determined by dividing a portion of the gel into 1 cm sections, and eluting the individual pieces at room temperature with 1 ml of 10 mM KCl prior to pH readings.
The isoelectric point of each antibiotic was determined by interpolation on a curve obtained by plotting pH values versus the distance from the anode.
Polyacrylamide gel was placed on a 3 mm layer of agar medium N. 1 inoculated with 1% of Bacillus subtilis ATCC 6633 spore (0.5 OD at 600 nm). After 10 min the gel was removed and the plate was incubated overnight at 37° C. and examined for inhibition zones. The contrast between the area of lysis and that of bacterial growth was enhanced by use of Phenolindo(2,6-dichlorophenol) 1% w/v (oxidation-reduction indicator).

S. pyogenes C 203 = experiment: In vitro antibacterial activity, standard agar-dilution test (MIC); type: cell-based; conditions: inoculum about 10^4 CFU/ml, 18-24 h at 37° C.
Method: (§1) The culture medium ISOSENSITEST BROTH (Oxoid) and the colture medium TODD-[…] BROTH (Difco) are used for growing staphylococci and streptococci, respectively. Broth cultures are diluted so that the final inoculum is about 10^4 colony forming units/ml (CFU/ml).

E. coli SKF 12140 = experiment: as above; type: cell-based; conditions: inoculum about 10^4 CFU/ml, 18-24 h at 37° C.
Method: as §1

[2] = system: S. epidermidis ATCC 12228; experiment: as above; type: cell-based; conditions: inoculum about 10^4 CFU/ml, 18-24 h at 37° C.
Method: as §1

S. pneumoniae UC 41 = experiment: as above; type: cell-based; conditions: inoculum about 10^4 CFU/ml, 18-24 h at 37° C.
Method: as §1

S. faecalis ATCC 7080 = experiment: as above; type: cell-based; conditions: inoculum about 10^4 CFU/ml, 18-24 h at 37° C.
Method: as §1

[3] = system: Pseudomonas aeruginosa ATCC 10145; experiment: as above; type: cell-based; conditions: inoculum about 10^4 CFU/ml, 18-24 h at 37° C.
Method: as §1

S. aureus Tour = experiment: as above; type: cell-based; conditions: inoculum about 10^4 CFU/ml, 18-24 h at 37° C.
Method: as §1

[4] = system: Proteus vulgaris X 19H ATCC 881; experiment: as above; type: cell-based; conditions: inoculum about 10^4 CFU/ml, 18-24 h at 37° C.
Method: as §1

S. pyogenes L 49 = experiment: In vivo test in mice experimentally infected with S. pyogenes L 49 (ED50); conditions: mice infected with S. pyogenes L 49; for ED50, route of administration os.: oral

Row | Compound | Isoelectric point (pI) [1] | MIC S. pyogenes C 203 (S. pyogenes C 203) | MIC E. coli SKF 12140 (E. coli SKF 12140) | MIC S. epidermidis ATCC 12228 [2] | MIC S. pneumoniae UC 41 (S. pneumoniae UC 41) | MIC S. faecalis ATCC 7080 (S. faecalis ATCC 7080) | MIC Pseudomonas aeruginosa ATCC 10145 [3] | MIC S. aureus Tour (S. aureus Tour) | MIC Proteus vulgaris X 19H ATCC 881 [4] | ED50, route of administration os. (S. pyogenes L 49) | ED50, route of administration s.c (S. pyogenes L 49)
1 | CC(=O)NC1C(OC2c3ccc(c(Cl)c3)Oc3cc4cc(c3O)Oc3ccc(cc3Cl)CC3NC(=O)C(N)c5ccc(O)c(c5)Oc5cc(O)cc(c5)C(NC3=O)C(=O)NC4C(=O)NC3C(=O)NC2C(=O)NC(C(=O)NCC(=O)O)c2cc(O)cc(O)c2-c2cc3ccc2O)OC(CO)C(O)C1O (stereo not shown) [Compound 56] | 5.8 | – | – | – | – | – | – | – | – | – | –
2 | CN(C)CCCCCCCNC(=O)C1NC(=O)C2NC(=O)C(NC(=O)C3NC(=O)C4NC(=O)C(Cc5ccc(c(Cl)c5)Oc5cc3cc(c5O)Oc3ccc(cc3Cl)C2O)NC(=O)C(N)c2ccc(O)c(c2)Oc2cc(O)cc4c2)c2ccc(O)c(c2)-c2c(O)cc(O)cc21 (stereo not shown) [Compound 101] | 9.1 | 0.06 µg/mL (≈ 0.0448 µM) | 16 µg/mL (≈ 11.9 µM) | 0.06 µg/mL (≈ 0.0448 µM) | 0.12 µg/mL (≈ 0.0896 µM) | 0.12 µg/mL (≈ 0.0896 µM) | 128 µg/mL (≈ 95.6 µM) | 0.06 µg/mL (≈ 0.0448 µM) | 128 µg/mL (≈ 95.6 µM) | – | –
3 | CCCCOC(=O)C(CCCNC(=N)N)NC(=O)C1NC(=O)C2NC(=O)C(NC(=O)C3NC(=O)C4NC(=O)C(Cc5ccc(c(Cl)c5)Oc5cc3cc(c5O)Oc3ccc(cc3Cl)C2O)NC(=O)C(N)c2ccc(O)c(c2)Oc2cc(O)cc4c2)c2ccc(O)c(c2)-c2c(O)cc(O)cc21 (stereo not shown) [Compound 103] | – | 0.5 µg/mL (≈ 0.354 µM) | 64 µg/mL (≈ 45.4 µM) | 0.5 µg/mL (≈ 0.354 µM) | 0.5 µg/mL (≈ 0.354 µM) | 1 µg/mL (≈ 0.709 µM) | 128 µg/mL (≈ 90.7 µM) | 2 µg/mL (≈ 1.42 µM) | > 128 µg/mL | – | –
4 | NCCCCNC(=O)C1NC(=O)C2NC(=O)C(NC(=O)C3NC(=O)C4NC(=O)C(Cc5ccc(c(Cl)c5)Oc5cc3cc(c5O)Oc3ccc(cc3Cl)C2O)NC(=O)C(N)c2ccc(O)c(c2)Oc2cc(O)cc4c2)c2ccc(O)c(c2)-c2c(O)cc(O)cc21 (stereo not shown) [Compound 99] | – | 0.06 µg/mL (≈ 0.0473 µM) | 8 µg/mL (≈ 6.3 µM) | 0.06 µg/mL (≈ 0.0473 µM) | 0.12 µg/mL (≈ 0.0946 µM) | 0.12 µg/mL (≈ 0.0946 µM) | 32 µg/mL (≈ 25.2 µM) | 0.06 µg/mL (≈ 0.0473 µM) | 32 µg/mL (≈ 25.2 µM) | – | –
5 | CCCCCCN(CCCCCC)CCCNC(=O)C1NC(=O)C2NC(=O)C(NC(=O)C3NC(=O)C4NC(=O)C(Cc5ccc(c(Cl)c5)Oc5cc3cc(c5O)Oc3ccc(cc3Cl)C2O)NC(=O)C(N)c2ccc(O)c(c2)Oc2cc(O)cc4c2)c2ccc(O)c(c2)-c2c(O)cc(O)cc21 (stereo not shown) [Compound 62] | 8.6 | – | – | – | – | – | – | – | – | – | –
6 | COC(=O)CNC(=O)C1NC(=O)C2NC(=O)C(NC(=O)C3NC(=O)C4NC(=O)C(Cc5ccc(c(Cl)c5)Oc5cc3cc(c5O)Oc3ccc(cc3Cl)C2OC2OC(CO)C(O)C(O)C2NC(C)=O)NC(=O)C(N)c2ccc(O)c(c2)Oc2cc(O)cc4c2)c2ccc(O)c(c2)-c2c(OC3OC(CO)C(O)C(O)C3O)cc(O)cc21 (stereo not shown) [Compound 47] | 7.8 | – | – | – | – | – | – | – | – | – | –
7 | CCN1CCCC1CNC(=O)C1NC(=O)C2NC(=O)C(NC(=O)C3NC(=O)C4NC(=O)C(Cc5ccc(c(Cl)c5)Oc5cc3cc(c5O)Oc3ccc(cc3Cl)C2O)NC(=O)C(N)c2ccc(O)c(c2)Oc2cc(O)cc4c2)c2ccc(O)c(c2)-c2c(O)cc(O)cc21.Cl.Cl (stereo not shown) [Compound 79] | – | 0.06 µg/mL | 4 µg/mL | 0.06 µg/mL | 0.06 µg/mL | 0.12 µg/mL | 64 µg/mL | 0.06 µg/mL | 32 µg/mL | > 300 mg/kg | 1.25 mg/kg
8 | NC1C(=O)NC2Cc3ccc(c(Cl)c3)Oc3cc4cc(c3O)Oc3ccc(cc3Cl)C(O)C3NC(=O)C(NC(=O)C4NC(=O)C(NC2=O)c2cc(O)cc(c2)Oc2cc1ccc2O)c1ccc(O)c(c1)-c1c(O)cc(O)cc1C(C(=O)NCC(=O)O)NC3=O (stereo not shown) [Compound 65] | 5.8 | – | – | – | – | – | – | – | – | – | –
9 | NCCCCCCNC(=O)C1NC(=O)C2NC(=O)C(NC(=O)C3NC(=O)C4NC(=O)C(Cc5ccc(c(Cl)c5)Oc5cc3cc(c5O)Oc3ccc(cc3Cl)C2O)NC(=O)C(N)c2ccc(O)c(c2)Oc2cc(O)cc4c2)c2ccc(O)c(c2)-c2c(O)cc(O)cc21 (stereo not shown) [Compound 102] | – | 0.06 µg/mL (≈ 0.0463 µM) | 4 µg/mL (≈ 3.08 µM) | 0.06 µg/mL (≈ 0.0463 µM) | 0.06 µg/mL (≈ 0.0463 µM) | 0.12 µg/mL (≈ 0.0925 µM) | 64 µg/mL (≈ 49.3 µM) | 0.06 µg/mL (≈ 0.0463 µM) | 64 µg/mL (≈ 49.3 µM) | – | –
10 | CN(C)CCN(C)C(=O)C1NC(=O)C2NC(=O)C(NC(=O)C3NC(=O)C4NC(=O)C(Cc5ccc(c(Cl)c5)Oc5cc3cc(c5O)Oc3ccc(cc3Cl)C2O)NC(=O)C(N)c2ccc(O)c(c2)Oc2cc(O)cc4c2)c2ccc(O)c(c2)-c2c(O)cc(O)cc21 (stereo not shown) [Compound 93] | – | 0.06 µg/mL (≈ 0.0468 µM) | 8 µg/mL (≈ 6.23 µM) | 0.06 µg/mL (≈ 0.0468 µM) | 0.06 µg/mL (≈ 0.0468 µM) | 0.12 µg/mL (≈ 0.0935 µM) | 64 µg/mL (≈ 49.9 µM) | 0.06 µg/mL (≈ 0.0468 µM) | 64 µg/mL (≈ 49.9 µM) | > 300 mg/kg | 1.25 mg/kg
11 | CN(C)CCCCNC(=O)C1NC(=O)C2NC(=O)C(NC(=O)C3NC(=O)C4NC(=O)C(Cc5ccc(c(Cl)c5)Oc5cc3cc(c5O)Oc3ccc(cc3Cl)C2O)NC(=O)C(N)c2ccc(O)c(c2)Oc2cc(O)cc4c2)c2ccc(O)c(c2)-c2c(O)cc(O)cc21.O=C(O)C(F)(F)F.O=C(O)C(F)(F)F (stereo not shown) [Compound 97] | – | 0.06 µg/mL | 8 µg/mL | 0.06 µg/mL | 0.12 µg/mL | 0.12 µg/mL | 32 µg/mL | 0.12 µg/mL | 32 µg/mL | > 300 mg/kg | 0.54 mg/kg
12 | CCCCCCN(CCCCCC)CCCNC(=O)C1NC(=O)C2NC(=O)C(NC(=O)C3NC(=O)C4NC(=O)C(Cc5ccc(c(Cl)c5)Oc5cc3cc(c5O)Oc3ccc(cc3Cl)C2OC2OC(CO)C(O)C(O)C2NC(C)=O)NC(=O)C(N)c2ccc(O)c(c2)Oc2cc(O)cc4c2)c2ccc(O)c(c2)-c2c(OC3OC(CO)C(O)C(O)C3O)cc(O)cc21 (stereo not shown) [Compound 44] | 8.7 | – | – | – | – | – | – | – | – | – | –
13 | CCCCCN(CCCCC)CCCNC(=O)C1NC(=O)C2NC(=O)C(NC(=O)C3NC(=O)C4NC(=O)C(Cc5ccc(c(Cl)c5)Oc5cc3cc(c5O)Oc3ccc(cc3Cl)C2OC2OC(CO)C(O)C(O)C2NC(C)=O)NC(=O)C(N)c2ccc(O)c(c2)Oc2cc(O)cc4c2)c2ccc(O)c(c2)-c2c(OC3OC(CO)C(O)C(O)C3O)cc(O)cc21 (stereo not shown) [Compound 43] | 8.7 | – | – | – | – | – | – | – | – | – | –
14 | CN(C)CCNC(=O)C1NC(=O)C2NC(=O)C(NC(=O)C3NC(=O)C4NC(=O)C(Cc5ccc(c(Cl)c5)Oc5cc3cc(c5O)Oc3ccc(cc3Cl)C2O)NC(=O)C(N)c2ccc(O)c(c2)Oc2cc(O)cc4c2)c2ccc(O)c(c2)-c2c(O)cc(O)cc21.Cl.Cl (stereo not shown) [Compound 94] | – | 0.06 µg/mL | 4 µg/mL | 0.06 µg/mL | 0.06 µg/mL | 0.12 µg/mL | 16 µg/mL | 0.06 µg/mL | 32 µg/mL | > 300 mg/kg | 1.25 mg/kg
